Consider one compound from US6780871B2, “Methods and compositions for treating addiction disorders” (Albany Medical College, priority 2001, dated 2004).

Common to all, as to assay type: in vivo, rat
For experiment [1], the system named is morphine self-administration. The experiment in a line: intravenous morphine self-administration. The following applies: 18-methoxycoronaridine 1 mg/kg i.p., dextromethorphan 5 mg/kg s.c. As to the method: Dextromethorphan hydrobromide (5 mg/kg; Sigma/RBI, St. Louis, Mo.) was dissolved in saline and injected subcutaneously 20 minutes before testing. Mecamylamine hydrochloride (1 mg/kg; Sigma/RBI, St. Louis, Mo.) was dissolved in physiological saline and injected intraperitoneally 30 minutes before testing. All rats received two injections. For rats that received a single drug, half of them also received the appropriate saline/vehicle injection corresponding to each of the other two drugs.
Naive female Long-Evans derived rats (250 g; Charles River, N.Y.) were maintained on a normal 12 h light cycle (lights on at 7:00 a.m., lights off at 7:00 p.m.). For all experiments the “Principles of Laboratory Animal Care” (NIH publication No. 85-23, revised 1985, which is hereby incorporated by reference) were followed.
The intravenous self-administration procedure described in Glick et al., “18-MC Reduces Methamphetamine and Nicotine Self-administration in Rats,” NeuroReport 11:2013-2015 (2000) (“Glick I”), which is hereby incorporated by reference, was employed. Briefly, responses on either of two levers (mounted 15 cm apart on the front wall of each operant test cage) were recorded on an IBM compatible computer with a Med Associates, Inc. interface. The intravenous self-administration system consisted of polyethylene-silicone cannulas constructed according to the design of Weeks, “Long-term Intravenous Infusion,” pp. 155-168 in Myers (ed.), Methods in Psychobiology, Vol. 2, New York: Academic Press (1972) (“Weeks”), which is hereby incorporated by reference; Instech harnesses and swivels; and Harvard Apparatus infusion pumps (#55-2222). Shaping of the bar-press response was initially accomplished by training rats to bar-press for water. Cannulas were then implanted in the external jugular vein according to procedures described in Weeks, which is hereby incorporated by reference. Self-administration testing began with a 16-h nocturnal session followed by daily 1-h sessions, 5 days (Monday-Friday) a week. A lever-press response produced a 10 μl infusion of drug solution (0.01 mg of morphine sulfate) in about 0.2 s or a 50 μl infusion of drug solution (0.025 mg of methamphetamine sulfate) in about 1 s. Since all rats generally weighed 250±20 g, each response delivered approximately 0.04 mg/kg of morphine or 0.1 mg/kg of methamphetamine. Experiments to assess the effects of experimental treatments were begun when baseline self-administration rates stabilized (≦10% variation from one day to the next across 5 days), usually after 2 weeks of testing.
Each data point represents the mean (±S.E.M.) percent of baseline of 6-8 rats. Significant differences between baseline and treatment are indicated by an asterisk (paired t-test, P<0.01-0.001).
Each data point represents the mean (±S.E.M.) percent of baseline of 5-8 rats. Significant differences between baseline and treatment are indicated by an asterisk (paired t-test), P<0.05-0.01).

Experiment [2] has as its system nicotine self-administration. The experiment in a line: nicotine self-administration. Conditions: Example 7, FIGS. 11-12: mecamylamine 0.1 mg/kg i.p., 18-methoxycoronaridine 0.5 mg/kg i.p., dextromethorphan 0.5 mg/kg s.c., bupropion 5 mg/kg i.p.; 5-8 rats.
The next experiment deals with responding for water. The experiment in a line: bar-pressing (responding) for water. The following applies: dose of 3 mg/kg, alone, data not shown.
Experiment [3] concerns methamphetamine self-administration. The experiment in a line: intravenous methamphetamine self-administration.

Take `CNC1(C)C2CCC(C2)C1(C)C` (stereo not drawn) [mecamylamine]: the “effect on morphine self-administration (percent of baseline)” value in experiment [1] (Example 5, FIG. 5: mecamylamine 1 mg/kg i.p., 6-8 rats) is “none of the drugs administered alone, significantly decreased”; in experiment [1] (Example 6, FIG. 8: mecamylamine 1 mg/kg i.p., bupropion 5 mg/kg i.p., 5-8 rats), “none of the drugs administered alone, significantly decreased”. Further, in experiment [2], the “effect on nicotine self-administration (percent of baseline)” value is given as “none of the drugs administered alone, significantly decreased”. In addition, the “effect on responding for water” value in the experiment on responding for water is reported as “decreases responding for water”. In addition, the “effect on methamphetamine self-administration (percent of baseline)” value is on record as “none of the drugs administered alone, significantly decreased” in experiment [3] (Example 5, FIG. 6: mecamylamine 1 mg/kg i.p., 18-methoxycoronaridine 2 mg/kg i.p., dextromethorphan 5 mg/kg s.c., 6-7 rats) and “none of the drugs administered alone, significantly decreased” in experiment [3] (Example 6, FIG. 9: mecamylamine 1 mg/kg i.p., 18-methoxycoronaridine 5 mg/kg i.p., dextromethorphan 10 mg/kg s.c., bupropion 10 mg/kg i.p., 5-9 rats).
